According to ChEMBL document CHEMBL2150979, “Xentrivalpeptides A-Q: depsipeptide diversification in Xenorhabdus” (J Nat Prod, 2012):
Calls of active or inactive are those of the source. The rule behind the calls is not given here.

Columns and labels:
[1] = system: Enterococcus faecalis; test: Antibacterial activity against Enterococcus faecalis; format: functional, organism-based
[2] = system: Bacillus subtilis; test: Antibacterial activity against Bacillus subtilis; format: functional, organism-based
[3] = system: Staphylococcus epidermidis; test: Antibacterial activity against Staphylococcus epidermidis; format: functional, organism-based
[4] = system: Staphylococcus aureus; test: Antibacterial activity against Staphylococcus aureus; format: functional, organism-based
[5] = system: Galleria mellonella; test: Hemocyte cytotoxicity against Galleria mellonella larvae assessed as actin cytoskeletal ruffling at 100 ug/mL after 4 hrs; format: organism-based; conditions: in vivo
[6] = system: Pseudomonas aeruginosa; test: Antibacterial activity against Pseudomonas aeruginosa; format: functional, organism-based
[7] = system: Saccharomyces cerevisiae; test: Antifungal activity against Saccharomyces cerevisiae; format: functional, organism-based
[8] = system: L929; test: Cytotoxicity against mouse L929 cells after 5 days by MTT assay; format: cell-based; conditions: l929, 120 h
[9] = system: Escherichia coli; test: Antibacterial activity against Escherichia coli; format: functional, organism-based
[10] = system: HL-60; test: Cytotoxicity against human HL60 cells after 5 days by MTT assay; format: functional, cell-based
[11] = system: Micrococcus luteus; test: Antibacterial activity against Micrococcus luteus; format: functional, organism-based

`CC(C)[C@H](NC(=O)Cc1ccccc1)C(=O)N[C@@H]1C(=O)N[C@H](Cc2ccccc2)C(=O)N2CCC[C@H]2C(=O)N[C@@H](C(C)C)C(=O)N[C@@H](C(C)C)C(=O)N[C@@H](C(C)C)C(=O)O[C@@H]1C` [XENTRIVALPEPTIDE A] was tested, and the Activity [1] was “inactive”, the Activity [2] was “inactive” and the Activity [3] was “inactive”. For the same compound, the Activity [4] was “inactive”, the Activity [5] was “Toxic” and the Activity [6] was “inactive”. For the same compound, the Activity [7] was “inactive”, the Activity [8] was “Non-toxic” and the Activity [9] was “inactive”. For the same compound, the Activity [10] was “inactive” and the Activity [11] was “inactive”.
